Consider four molecules from PubChem BioAssay (NCI).

The structures appear in SMILES notation.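 How tested: cells in 96-well plates exposed to compound for 48 hours at five concentrations. TGI denotes the concentration required for complete inhibition of growth.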 Where a SMILES comes first, the peptide text is derived from it. The star is where a group is joined. Boc = CC(C)(C)OC(=O)*; OSu = O=C1CCC(=O)N1O*

One assay deals with CAKI-1 renal. Kind of assay: growth of human tumour cells (NCI), 48 h.
`[N-]=[N+]=Nc1c(Cl)c(=O)n(-c2ccccc2)c2ccccc12` showed a TGI of 50.5 µM.

Another assay deals with OVCAR-5 ovarian. Nature of the assay: growth of human tumour cells (NCI), 48 h.
`O=c1[nH]cnc2c(C3OC(CO)C(O)C3O)c[nH]c12` (configuration not stated) displayed a TGI of over 100 µM.
`CC(C)=CCN1CC(C)C(=O)Nc2cc(Cl)ccc21` (configuration not stated) had a TGI of over 100 µM.
Still for that read-out and setting: as for `CC(C)(C)OC(=O)NC(Cc1ccc(O)cc1)C(=O)NC(CCCCN)C(=O)NC(Cc1ccc(O)cc1)C(=O)NC(CCCCN)C(=O)ON1C(=O)CCC1=O` (configuration not stated) (Boc-YKYK-OSu; configuration not given here), the figure is over 100 µM.
With `[N-]=[N+]=Nc1c(Cl)c(=O)n(-c2ccccc2)c2ccccc12`, the TGI amounted to 42.4 µM.

For the next assay, the system named is U251 CNS. Nature of the assay: growth of human tumour cells (NCI), 48 h.
For `O=c1[nH]cnc2c(C3OC(CO)C(O)C3O)c[nH]c12` (configuration not stated), the TGI is over 100 µM.
Still for that read-out and setting: to `CC(C)=CCN1CC(C)C(=O)Nc2cc(Cl)ccc21` (configuration not stated) belongs over 100 µM.
On the same count and under the same terms, to `CC(C)(C)OC(=O)NC(Cc1ccc(O)cc1)C(=O)NC(CCCCN)C(=O)NC(Cc1ccc(O)cc1)C(=O)NC(CCCCN)C(=O)ON1C(=O)CCC1=O` (configuration not stated) (Boc-YKYK-OSu; configuration not given here) belongs over 100 µM.

For a further assay, the system named is RXF 393 renal. Kind of assay: growth of human tumour cells (NCI), 48 h.
The molecule `O=c1[nH]cnc2c(C3OC(CO)C(O)C3O)c[nH]c12` (configuration not stated) displayed a TGI of over 100 µM.
Same read-out and setting: as for `CC(C)=CCN1CC(C)C(=O)Nc2cc(Cl)ccc21` (configuration not stated), the figure is over 100 µM.
Regarding `CC(C)(C)OC(=O)NC(Cc1ccc(O)cc1)C(=O)NC(CCCCN)C(=O)NC(Cc1ccc(O)cc1)C(=O)NC(CCCCN)C(=O)ON1C(=O)CCC1=O` (configuration not stated) (Boc-YKYK-OSu; configuration not given here), the TGI is over 100 µM.
Still for that read-out and setting: to `[N-]=[N+]=Nc1c(Cl)c(=O)n(-c2ccccc2)c2ccccc12` belongs 30.1 µM.

In another assay the test system is SK-MEL-28 melanoma. Kind of assay: growth of human tumour cells (NCI), 48 h.
With `O=c1[nH]cnc2c(C3OC(CO)C(O)C3O)c[nH]c12` (configuration not stated), the TGI is over 100 µM.
Turning to `CC(C)=CCN1CC(C)C(=O)Nc2cc(Cl)ccc21` (configuration not stated), the TGI was over 100 µM.
On the same count and under the same terms, to `CC(C)(C)OC(=O)NC(Cc1ccc(O)cc1)C(=O)NC(CCCCN)C(=O)NC(Cc1ccc(O)cc1)C(=O)NC(CCCCN)C(=O)ON1C(=O)CCC1=O` (configuration not stated) (Boc-YKYK-OSu; configuration not given here) belongs over 100 µM; to `[N-]=[N+]=Nc1c(Cl)c(=O)n(-c2ccccc2)c2ccccc12`, 32.1 µM.

The next assay concerns HCC-2998 colon. Kind of assay: growth of human tumour cells (NCI), 48 h.
On to `O=c1[nH]cnc2c(C3OC(CO)C(O)C3O)c[nH]c12` (configuration not stated), for which the TGI was over 100 µM.
Turning to `CC(C)=CCN1CC(C)C(=O)Nc2cc(Cl)ccc21` (configuration not stated), the TGI amounted to 97.6 µM.
Same read-out and setting: to `CC(C)(C)OC(=O)NC(Cc1ccc(O)cc1)C(=O)NC(CCCCN)C(=O)NC(Cc1ccc(O)cc1)C(=O)NC(CCCCN)C(=O)ON1C(=O)CCC1=O` (configuration not stated) (Boc-YKYK-OSu; configuration not given here) belongs over 100 µM.
On the same count and under the same terms, to `[N-]=[N+]=Nc1c(Cl)c(=O)n(-c2ccccc2)c2ccccc12` belongs 42.7 µM.

Another assay relates to UACC-62 melanoma. Kind of assay: growth of human tumour cells (NCI), 48 h.
Turning to `O=c1[nH]cnc2c(C3OC(CO)C(O)C3O)c[nH]c12` (configuration not stated), the TGI is over 100 µM.
Same read-out and setting: to `CC(C)(C)OC(=O)NC(Cc1ccc(O)cc1)C(=O)NC(CCCCN)C(=O)NC(Cc1ccc(O)cc1)C(=O)NC(CCCCN)C(=O)ON1C(=O)CCC1=O` (configuration not stated) (Boc-YKYK-OSu; configuration not given here) belongs over 100 µM; to `[N-]=[N+]=Nc1c(Cl)c(=O)n(-c2ccccc2)c2ccccc12`, 29.4 µM.

For another assay, the system named is SW-620 colon. Nature of the assay: growth of human tumour cells (NCI), 48 h.
The molecule `O=c1[nH]cnc2c(C3OC(CO)C(O)C3O)c[nH]c12` (configuration not stated) yielded a TGI of over 100 µM.
Still for that read-out and setting: to `CC(C)=CCN1CC(C)C(=O)Nc2cc(Cl)ccc21` (configuration not stated) belongs 67.9 µM; to `CC(C)(C)OC(=O)NC(Cc1ccc(O)cc1)C(=O)NC(CCCCN)C(=O)NC(Cc1ccc(O)cc1)C(=O)NC(CCCCN)C(=O)ON1C(=O)CCC1=O` (configuration not stated) (Boc-YKYK-OSu; configuration not given here), over 100 µM.
Still for that read-out and setting: to `[N-]=[N+]=Nc1c(Cl)c(=O)n(-c2ccccc2)c2ccccc12` belongs 31 µM.

For the next assay, the system named is HCT-116 colon. Kind of assay: growth of human tumour cells (NCI), 48 h.
Turning to `O=c1[nH]cnc2c(C3OC(CO)C(O)C3O)c[nH]c12` (configuration not stated), the TGI was over 100 µM.
Molecule `CC(C)=CCN1CC(C)C(=O)Nc2cc(Cl)ccc21` (configuration not stated) gave a TGI of 31.9 µM.
The molecule `CC(C)(C)OC(=O)NC(Cc1ccc(O)cc1)C(=O)NC(CCCCN)C(=O)NC(Cc1ccc(O)cc1)C(=O)NC(CCCCN)C(=O)ON1C(=O)CCC1=O` (configuration not stated) (Boc-YKYK-OSu; configuration not given here) returned a TGI of over 100 µM.
Regarding `[N-]=[N+]=Nc1c(Cl)c(=O)n(-c2ccccc2)c2ccccc12`, the TGI was 33.4 µM.

The subject of the next assay is A549 NSCLC. Kind of assay: growth of human tumour cells (NCI), 48 h.
Take `O=c1[nH]cnc2c(C3OC(CO)C(O)C3O)c[nH]c12` (configuration not stated): the TGI is over 100 µM.
In turn, `CC(C)=CCN1CC(C)C(=O)Nc2cc(Cl)ccc21` (configuration not stated) registered a TGI of over 100 µM.
On the same count and under the same terms, to `CC(C)(C)OC(=O)NC(Cc1ccc(O)cc1)C(=O)NC(CCCCN)C(=O)NC(Cc1ccc(O)cc1)C(=O)NC(CCCCN)C(=O)ON1C(=O)CCC1=O` (configuration not stated) (Boc-YKYK-OSu; configuration not given here) belongs over 100 µM; to `[N-]=[N+]=Nc1c(Cl)c(=O)n(-c2ccccc2)c2ccccc12`, over 100 µM.

In a further assay the test system is SF-295 CNS. Kind of assay: growth of human tumour cells (NCI), 48 h.
`O=c1[nH]cnc2c(C3OC(CO)C(O)C3O)c[nH]c12` (configuration not stated) yielded a TGI of over 100 µM.
`CC(C)=CCN1CC(C)C(=O)Nc2cc(Cl)ccc21` (configuration not stated) registered a TGI of over 100 µM.
On the same count and under the same terms, to `[N-]=[N+]=Nc1c(Cl)c(=O)n(-c2ccccc2)c2ccccc12` belongs over 100 µM.

A further assay concerns M14 melanoma. Kind of assay: growth of human tumour cells (NCI), 48 h.
Molecule `O=c1[nH]cnc2c(C3OC(CO)C(O)C3O)c[nH]c12` (configuration not stated) had a TGI of over 100 µM.
Still for that read-out and setting: to `CC(C)=CCN1CC(C)C(=O)Nc2cc(Cl)ccc21` (configuration not stated) belongs 43.3 µM.
Same read-out and setting: as for `CC(C)(C)OC(=O)NC(Cc1ccc(O)cc1)C(=O)NC(CCCCN)C(=O)NC(Cc1ccc(O)cc1)C(=O)NC(CCCCN)C(=O)ON1C(=O)CCC1=O` (configuration not stated) (Boc-YKYK-OSu; configuration not given here), the figure is over 100 µM.
Same read-out and setting: to `[N-]=[N+]=Nc1c(Cl)c(=O)n(-c2ccccc2)c2ccccc12` belongs 36.3 µM.

In another assay the test system is PC-3 prostate. Nature of the assay: growth of human tumour cells (NCI), 48 h.
As to `O=c1[nH]cnc2c(C3OC(CO)C(O)C3O)c[nH]c12` (configuration not stated), the TGI was over 100 µM.
Same read-out and setting: to `CC(C)=CCN1CC(C)C(=O)Nc2cc(Cl)ccc21` (configuration not stated) belongs 47.5 µM; to `CC(C)(C)OC(=O)NC(Cc1ccc(O)cc1)C(=O)NC(CCCCN)C(=O)NC(Cc1ccc(O)cc1)C(=O)NC(CCCCN)C(=O)ON1C(=O)CCC1=O` (configuration not stated) (Boc-YKYK-OSu; configuration not given here), over 100 µM.
Same read-out and setting: as for `[N-]=[N+]=Nc1c(Cl)c(=O)n(-c2ccccc2)c2ccccc12`, the figure is 70 µM.

For another assay, the system named is NCI-H226 lung. Kind of assay: growth of human tumour cells (NCI), 48 h.
`O=c1[nH]cnc2c(C3OC(CO)C(O)C3O)c[nH]c12` (configuration not stated) displayed a TGI of over 100 µM.
Same read-out and setting: as for `CC(C)=CCN1CC(C)C(=O)Nc2cc(Cl)ccc21` (configuration not stated), the figure is 40.6 µM; as for `CC(C)(C)OC(=O)NC(Cc1ccc(O)cc1)C(=O)NC(CCCCN)C(=O)NC(Cc1ccc(O)cc1)C(=O)NC(CCCCN)C(=O)ON1C(=O)CCC1=O` (configuration not stated) (Boc-YKYK-OSu; configuration not given here), over 100 µM.

For another assay, the system named is SNB-19 CNS. Nature of the assay: growth of human tumour cells (NCI), 48 h.
Molecule `O=c1[nH]cnc2c(C3OC(CO)C(O)C3O)c[nH]c12` (configuration not stated) displayed a TGI of over 100 µM.
Same read-out and setting: as for `CC(C)=CCN1CC(C)C(=O)Nc2cc(Cl)ccc21` (configuration not stated), the figure is over 100 µM.
The same measure, in the same setting: to `CC(C)(C)OC(=O)NC(Cc1ccc(O)cc1)C(=O)NC(CCCCN)C(=O)NC(Cc1ccc(O)cc1)C(=O)NC(CCCCN)C(=O)ON1C(=O)CCC1=O` (configuration not stated) (Boc-YKYK-OSu; configuration not given here) belongs over 100 µM.
